Measurements: ChEMBL document CHEMBL4184149, “Discovery and process development of a novel TACE inhibitor for the topical treatment of psoriasis” (Bioorg Med Chem, 2018)
Converted amounts (≈) assume the structure as drawn.

Assays:
[1] = target: T1, Disintegrin and metalloproteinase domain-containing protein 17 (Homo sapiens, UniProt P78536); test: Inhibition of TACE in human PBMC assessed as reduction in LPS-induced TNFalpha production incubated overnight by HTRF assay; format: cell-based
[2] = Aqueous solubility of the compound in PBS at pH 7.4 at 20 degC after 24 hrs by HPLC analysis; format: physicochemical
TK6 [3] = test: Genotoxicity in p53-competent human TK6 cells in presence of Sprague-Dawley rat S9 fraction by GADD45alpha GFP reporter assay; format: toxicity, cell-based
Collagenase 3 = Collagenase 3 (Homo sapiens, UniProt P45452); test: Inhibition of MMP13 (unknown origin)
Neutrophil collagenase = Neutrophil collagenase (Homo sapiens, UniProt P22894); test: Inhibition of MMP8 (unknown origin)
Chain of Neutrophil collagenase (P22894 whole entry): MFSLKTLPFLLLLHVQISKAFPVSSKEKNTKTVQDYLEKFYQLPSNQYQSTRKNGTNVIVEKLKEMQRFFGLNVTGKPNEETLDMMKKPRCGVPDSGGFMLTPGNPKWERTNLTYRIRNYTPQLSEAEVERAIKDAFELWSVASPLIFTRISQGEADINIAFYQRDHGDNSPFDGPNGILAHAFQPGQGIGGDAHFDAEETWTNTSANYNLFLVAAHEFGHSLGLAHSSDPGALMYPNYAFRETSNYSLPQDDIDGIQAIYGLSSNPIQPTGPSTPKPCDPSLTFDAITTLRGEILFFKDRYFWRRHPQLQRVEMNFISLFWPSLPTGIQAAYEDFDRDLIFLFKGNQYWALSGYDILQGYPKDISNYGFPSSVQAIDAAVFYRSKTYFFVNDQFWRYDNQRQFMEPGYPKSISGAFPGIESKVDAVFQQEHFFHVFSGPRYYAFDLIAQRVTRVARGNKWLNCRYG

[4] = Half life in human neonatal keratinocytes at 1 uM by LC-MS/MS analysis; format: ADME, cell-based
Matrilysin = target: T2, Matrilysin (Homo sapiens, UniProt P09237); test: Inhibition of MMP7 (unknown origin)
T2 sequence (P09237 whole entry): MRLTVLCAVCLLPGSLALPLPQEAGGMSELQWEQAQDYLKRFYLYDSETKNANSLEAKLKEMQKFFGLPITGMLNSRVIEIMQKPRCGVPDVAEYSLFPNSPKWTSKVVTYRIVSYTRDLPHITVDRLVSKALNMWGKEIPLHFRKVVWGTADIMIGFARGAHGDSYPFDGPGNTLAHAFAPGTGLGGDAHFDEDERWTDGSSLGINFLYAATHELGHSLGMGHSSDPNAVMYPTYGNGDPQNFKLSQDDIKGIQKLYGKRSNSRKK

Interstitial collagenase = target: T3, Interstitial collagenase (Homo sapiens, UniProt P03956); test: Inhibition of recombinant human MMP1 catalytic domain using Mca-Pro-Leu-Gly-Leu-Dpa-Ala-Arg-NH2 as substrate after 10 mins by fluorescence assay
T3 sequence (P03956 whole entry): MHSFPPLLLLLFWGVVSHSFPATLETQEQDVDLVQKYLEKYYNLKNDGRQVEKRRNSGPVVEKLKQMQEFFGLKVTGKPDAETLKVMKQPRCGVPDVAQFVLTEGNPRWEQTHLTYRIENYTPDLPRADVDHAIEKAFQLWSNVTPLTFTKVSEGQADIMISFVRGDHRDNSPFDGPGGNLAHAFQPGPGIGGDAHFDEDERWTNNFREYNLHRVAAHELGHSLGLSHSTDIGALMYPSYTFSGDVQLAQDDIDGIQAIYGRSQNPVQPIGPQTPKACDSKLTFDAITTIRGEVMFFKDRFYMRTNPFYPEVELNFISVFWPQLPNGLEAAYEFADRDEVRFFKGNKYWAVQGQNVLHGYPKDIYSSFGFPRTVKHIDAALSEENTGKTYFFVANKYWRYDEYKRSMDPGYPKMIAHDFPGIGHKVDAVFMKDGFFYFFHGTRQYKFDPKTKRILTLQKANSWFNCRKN

[5] = target: Macrophage metalloelastase (Homo sapiens, UniProt P39900); test: Inhibition of MMP12 (unknown origin)
Chain of Macrophage metalloelastase (P39900 whole entry): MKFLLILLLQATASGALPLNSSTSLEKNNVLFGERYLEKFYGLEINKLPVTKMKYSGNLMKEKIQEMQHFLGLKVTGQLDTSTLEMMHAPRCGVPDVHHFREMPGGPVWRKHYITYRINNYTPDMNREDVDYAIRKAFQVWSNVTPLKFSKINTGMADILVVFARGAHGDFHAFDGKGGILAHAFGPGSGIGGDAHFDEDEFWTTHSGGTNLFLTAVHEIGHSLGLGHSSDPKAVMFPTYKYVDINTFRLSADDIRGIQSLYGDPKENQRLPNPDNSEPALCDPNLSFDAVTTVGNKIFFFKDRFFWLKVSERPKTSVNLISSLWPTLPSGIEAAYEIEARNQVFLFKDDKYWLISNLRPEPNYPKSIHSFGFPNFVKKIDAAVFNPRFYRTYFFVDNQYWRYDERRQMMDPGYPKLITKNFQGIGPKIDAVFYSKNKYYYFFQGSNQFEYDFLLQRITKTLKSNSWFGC

Salmonella typhimurium [6] = test: Mutagenicity in Salmonella typhimurium TA98 in presence of rat S9 fraction by Ames test; format: toxicity, organism-based; settings: salmonella enterica subsp. enterica serovar typhimurium
[7] = Fraction unbound in human plasma at 5 uM after 4 hrs by LC-MS/MS analysis; format: ADME, cell-free
[8] = Intrinsic clearance in human hepatocytes assessed per million cells at 1 uM by LC-MS/MS analysis; format: ADME, cell-based, Hepatocyte; settings: human hepatocytes, read-out: CLH
[9] = Solubility of the compound in propylene glycol/ethanol96 at 30 mg/ml after 24 hrs by UV-spectrometric analysis; format: physicochemical; settings: propylene glycol/ethanol96
[10] = Stability of the compound in propylene glycol/ethanol96 at 0.1 mg/ml measured up to 3 months by HPLC analysis; format: physicochemical; settings: read-out: Stability
[11] = target: 72 kDa type IV collagenase (Homo sapiens, UniProt P08253); test: Inhibition of MMP2 (unknown origin)
Chain of 72 kDa type IV collagenase (P08253 whole entry, the tested form may be a part): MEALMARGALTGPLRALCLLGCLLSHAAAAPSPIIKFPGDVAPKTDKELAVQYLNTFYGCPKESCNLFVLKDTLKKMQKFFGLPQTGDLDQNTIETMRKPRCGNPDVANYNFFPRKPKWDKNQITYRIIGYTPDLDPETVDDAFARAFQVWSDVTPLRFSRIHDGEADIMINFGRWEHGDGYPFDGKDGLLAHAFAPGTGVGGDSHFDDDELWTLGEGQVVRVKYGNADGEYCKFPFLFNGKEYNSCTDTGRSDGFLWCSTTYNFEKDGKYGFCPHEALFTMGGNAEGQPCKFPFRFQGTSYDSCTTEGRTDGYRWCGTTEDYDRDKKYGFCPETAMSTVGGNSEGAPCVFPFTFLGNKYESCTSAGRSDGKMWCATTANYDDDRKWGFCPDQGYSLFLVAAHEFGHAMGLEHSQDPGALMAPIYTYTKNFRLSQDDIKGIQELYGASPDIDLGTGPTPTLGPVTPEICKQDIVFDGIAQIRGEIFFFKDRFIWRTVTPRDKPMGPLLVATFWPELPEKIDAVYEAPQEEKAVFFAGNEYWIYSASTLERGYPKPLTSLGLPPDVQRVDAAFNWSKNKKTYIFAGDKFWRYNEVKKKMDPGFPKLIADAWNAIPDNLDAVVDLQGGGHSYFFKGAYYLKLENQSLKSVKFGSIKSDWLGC

[12] = target: T1, Disintegrin and metalloproteinase domain-containing protein 17; test: Inhibition of recombinant human TACE catalytic domain using Mca-Pro-Leu-Ala-Gln-Ala-Val-Dpa-Arg-Ser-Ser-Ser-Arg-NH2 as substrate after 2 hrs by fluorescence assay
Stromelysin-1 = Stromelysin-1 (Homo sapiens, UniProt P08254); test: Inhibition of MMP3 (unknown origin)
Chain of Stromelysin-1 (P08254 whole entry): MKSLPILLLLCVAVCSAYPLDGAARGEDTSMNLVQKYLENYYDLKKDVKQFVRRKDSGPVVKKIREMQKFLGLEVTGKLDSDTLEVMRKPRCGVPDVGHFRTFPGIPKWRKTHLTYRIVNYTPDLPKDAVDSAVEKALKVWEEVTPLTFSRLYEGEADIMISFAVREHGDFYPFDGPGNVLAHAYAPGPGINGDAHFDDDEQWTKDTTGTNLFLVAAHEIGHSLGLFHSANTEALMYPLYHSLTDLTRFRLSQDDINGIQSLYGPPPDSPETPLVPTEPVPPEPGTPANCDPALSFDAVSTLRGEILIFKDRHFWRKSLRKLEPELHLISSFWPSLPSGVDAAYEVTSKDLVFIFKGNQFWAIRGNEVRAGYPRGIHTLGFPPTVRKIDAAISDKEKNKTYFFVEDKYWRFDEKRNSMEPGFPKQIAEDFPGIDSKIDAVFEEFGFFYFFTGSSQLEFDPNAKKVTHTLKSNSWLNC

TK6 [13] = test: Genotoxicity in p53-competent human TK6 cells in absence of Sprague-Dawley rat S9 fraction by GADD45alpha GFP reporter assay; format: toxicity, cell-based
[14] = target: Matrix metalloproteinase-9 (Homo sapiens, UniProt P14780); test: Inhibition of MMP9 (unknown origin)
Chain of Matrix metalloproteinase-9 (P14780 whole entry): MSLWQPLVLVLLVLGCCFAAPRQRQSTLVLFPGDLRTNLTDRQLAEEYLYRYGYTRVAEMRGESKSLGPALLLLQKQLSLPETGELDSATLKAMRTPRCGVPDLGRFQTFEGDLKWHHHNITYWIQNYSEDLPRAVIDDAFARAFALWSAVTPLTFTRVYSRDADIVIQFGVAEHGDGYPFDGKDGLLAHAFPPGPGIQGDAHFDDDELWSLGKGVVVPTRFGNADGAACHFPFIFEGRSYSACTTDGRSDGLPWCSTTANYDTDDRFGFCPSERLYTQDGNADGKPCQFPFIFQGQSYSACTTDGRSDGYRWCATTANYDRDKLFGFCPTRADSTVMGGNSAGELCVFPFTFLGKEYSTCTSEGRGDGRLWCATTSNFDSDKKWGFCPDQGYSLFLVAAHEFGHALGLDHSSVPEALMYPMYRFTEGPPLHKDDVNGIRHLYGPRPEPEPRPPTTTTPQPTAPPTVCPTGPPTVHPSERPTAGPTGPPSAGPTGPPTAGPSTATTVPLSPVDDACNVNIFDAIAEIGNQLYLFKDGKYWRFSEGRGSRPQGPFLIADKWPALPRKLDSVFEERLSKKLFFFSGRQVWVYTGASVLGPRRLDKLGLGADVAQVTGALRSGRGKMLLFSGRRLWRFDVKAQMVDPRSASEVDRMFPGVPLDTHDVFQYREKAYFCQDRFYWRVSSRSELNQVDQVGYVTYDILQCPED

TK6 [15] = test: Genotoxicity in human TK6 cells in absence of rat S9 fraction by Giemsa staining based micronucleus assay; format: toxicity, cell-based
[16] = target: T4, Disintegrin and metalloproteinase domain-containing protein 9 (Homo sapiens, UniProt Q13443); test: Inhibition of ADAM9 (unknown origin)
T4 sequence (Q13443 whole entry): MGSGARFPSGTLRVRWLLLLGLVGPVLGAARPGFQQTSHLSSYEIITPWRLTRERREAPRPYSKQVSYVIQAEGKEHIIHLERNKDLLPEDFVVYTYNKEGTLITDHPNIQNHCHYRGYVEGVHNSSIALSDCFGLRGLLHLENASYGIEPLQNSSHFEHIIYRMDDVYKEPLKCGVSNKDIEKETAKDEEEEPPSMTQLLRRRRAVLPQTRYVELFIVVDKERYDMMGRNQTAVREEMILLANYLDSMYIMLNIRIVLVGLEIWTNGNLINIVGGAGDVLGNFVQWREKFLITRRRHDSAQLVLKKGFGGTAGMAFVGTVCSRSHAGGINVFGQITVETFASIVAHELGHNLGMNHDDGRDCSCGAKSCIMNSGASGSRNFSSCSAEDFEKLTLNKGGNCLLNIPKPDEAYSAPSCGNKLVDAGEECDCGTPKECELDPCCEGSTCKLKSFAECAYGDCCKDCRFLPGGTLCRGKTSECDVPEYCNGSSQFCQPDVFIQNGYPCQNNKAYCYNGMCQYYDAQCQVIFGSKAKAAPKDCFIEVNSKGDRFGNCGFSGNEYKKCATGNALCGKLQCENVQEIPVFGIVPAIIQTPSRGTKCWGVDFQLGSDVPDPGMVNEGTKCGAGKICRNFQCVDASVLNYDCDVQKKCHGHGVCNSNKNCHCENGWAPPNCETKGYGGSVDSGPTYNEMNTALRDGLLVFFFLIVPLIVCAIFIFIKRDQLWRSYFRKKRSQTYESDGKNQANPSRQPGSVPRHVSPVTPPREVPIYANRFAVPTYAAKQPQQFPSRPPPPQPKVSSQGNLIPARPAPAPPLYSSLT

Salmonella typhimurium [17] = test: Mutagenicity in Salmonella typhimurium TA98 in absence of rat S9 fraction by Ames test; format: toxicity, organism-based; settings: salmonella enterica subsp. enterica serovar typhimurium
[18] = target: Voltage-gated inwardly rectifying potassium channel KCNH2 (Homo sapiens, UniProt Q12809); test: Inhibition of human ERG expressed in CHO-K1 cells assessed as reduction in tail current amplitude by patch clamp assay; format: cell-based
Chain of Voltage-gated inwardly rectifying potassium channel KCNH2 (Q12809 whole entry): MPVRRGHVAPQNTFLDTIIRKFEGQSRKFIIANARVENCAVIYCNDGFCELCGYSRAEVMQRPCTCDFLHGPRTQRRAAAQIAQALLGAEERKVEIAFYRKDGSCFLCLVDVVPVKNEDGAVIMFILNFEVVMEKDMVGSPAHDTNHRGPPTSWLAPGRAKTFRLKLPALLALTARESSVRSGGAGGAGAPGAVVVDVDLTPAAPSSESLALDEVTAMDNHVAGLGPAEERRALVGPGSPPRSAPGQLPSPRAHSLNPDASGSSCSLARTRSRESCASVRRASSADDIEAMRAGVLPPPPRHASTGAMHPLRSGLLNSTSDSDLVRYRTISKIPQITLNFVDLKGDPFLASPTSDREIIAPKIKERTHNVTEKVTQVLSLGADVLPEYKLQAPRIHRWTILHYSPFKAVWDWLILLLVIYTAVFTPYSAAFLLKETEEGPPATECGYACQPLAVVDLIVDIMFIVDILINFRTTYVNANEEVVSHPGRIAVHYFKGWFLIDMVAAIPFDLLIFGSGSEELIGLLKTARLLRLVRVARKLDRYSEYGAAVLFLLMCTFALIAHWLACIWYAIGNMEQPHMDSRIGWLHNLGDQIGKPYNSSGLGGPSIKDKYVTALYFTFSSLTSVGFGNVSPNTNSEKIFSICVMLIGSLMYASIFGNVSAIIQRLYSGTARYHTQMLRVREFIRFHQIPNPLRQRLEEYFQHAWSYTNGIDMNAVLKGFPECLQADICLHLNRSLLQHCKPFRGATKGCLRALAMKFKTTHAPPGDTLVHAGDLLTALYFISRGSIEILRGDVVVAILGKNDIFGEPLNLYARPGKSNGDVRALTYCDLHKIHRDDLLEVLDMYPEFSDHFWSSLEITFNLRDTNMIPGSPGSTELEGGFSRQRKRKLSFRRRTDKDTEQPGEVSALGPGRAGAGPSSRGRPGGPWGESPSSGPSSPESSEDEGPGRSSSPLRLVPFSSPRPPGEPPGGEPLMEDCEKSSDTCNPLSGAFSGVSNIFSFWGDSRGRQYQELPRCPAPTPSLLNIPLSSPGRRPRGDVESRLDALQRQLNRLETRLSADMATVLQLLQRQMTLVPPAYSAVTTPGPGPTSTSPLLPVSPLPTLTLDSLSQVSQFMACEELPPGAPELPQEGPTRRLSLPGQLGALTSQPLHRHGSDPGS

[19] = target: Matrix metalloproteinase-14 (Homo sapiens, UniProt P50281); test: Inhibition of MMP14 (unknown origin)

T1 sequence (P78536 whole entry, the tested form may be a part): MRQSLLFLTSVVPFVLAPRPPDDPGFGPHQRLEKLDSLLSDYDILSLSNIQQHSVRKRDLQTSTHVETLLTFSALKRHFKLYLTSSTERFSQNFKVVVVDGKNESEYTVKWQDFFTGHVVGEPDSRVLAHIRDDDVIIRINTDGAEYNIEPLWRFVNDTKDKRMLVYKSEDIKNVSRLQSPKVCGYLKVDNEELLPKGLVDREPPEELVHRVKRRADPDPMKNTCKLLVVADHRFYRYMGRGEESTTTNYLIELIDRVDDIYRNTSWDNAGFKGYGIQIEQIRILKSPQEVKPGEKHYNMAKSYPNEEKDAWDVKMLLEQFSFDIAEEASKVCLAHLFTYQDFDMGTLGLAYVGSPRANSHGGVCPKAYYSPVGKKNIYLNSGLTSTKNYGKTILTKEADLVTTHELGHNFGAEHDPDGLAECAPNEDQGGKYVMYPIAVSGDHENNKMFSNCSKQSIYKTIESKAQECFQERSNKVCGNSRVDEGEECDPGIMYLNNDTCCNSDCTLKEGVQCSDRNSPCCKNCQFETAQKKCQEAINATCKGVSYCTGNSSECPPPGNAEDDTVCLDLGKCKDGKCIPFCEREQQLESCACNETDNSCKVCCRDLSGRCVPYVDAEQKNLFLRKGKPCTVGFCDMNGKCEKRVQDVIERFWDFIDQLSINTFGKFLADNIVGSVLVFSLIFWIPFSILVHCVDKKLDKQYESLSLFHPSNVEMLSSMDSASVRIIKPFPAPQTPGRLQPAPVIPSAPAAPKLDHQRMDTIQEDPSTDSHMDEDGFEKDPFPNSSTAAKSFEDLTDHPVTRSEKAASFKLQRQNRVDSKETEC

Compound	IC50 [1]	solubility at 24 h [2]	Activity (TK6 [3])	IC50 (Collagenase 3)	IC50 (Neutrophil collagenase)	half-life at 1 µM [4]	IC50 (Matrilysin)	IC50 (Interstitial collagenase)	IC50 [5]	Activity (Salmonella typhimurium [6])	fraction unbound at 4 h, 5 µM [7]	hepatocyte CLint at 1 µM [8]	solubility at 24 h [9]	remaining at 0.1 mg/ml [10]	IC50 [11]	IC50 [12]	IC50 (Stromelysin-1)	Activity (TK6 [13])	IC50 [14]	Activity (TK6 [15])	other results
Cc1cc(COc2ccc(S(=O)(=O)N(C)C3(C(=O)NO)CN(C(=O)C(C)C)C3)cc2)c2ccccc2n1	9 nM	0.084 mM (≈ 0.0442 mg/mL)	Non-Toxic	1300 nM	2600 nM	> 24 h	180 nM	4500 nM	13 nM	Non-Toxic	0.019	8 µL/min/1e6 cells	56 to 57 mM (≈ 29.5 to 30 mg/mL)	99%	890 nM	4 nM	90 nM	Non-Toxic	2100 nM	Non-Toxic	IC50 [16]: 90 nM; Activity (Salmonella typhimurium [17]): Non-Toxic; IC50 [18]: > 100000 nM; IC50 [19]: 6500 nM
Cc1cc(COc2ccc(S(=O)(=O)N(C)C3(C(=O)NO)CN(C(=O)CC(C)C)C3)cc2)c2ccccc2n1	33 nM	0.062 mM (≈ 0.0335 mg/mL)	Non-Toxic	1200 nM	3700 nM	> 24 h	210 nM	4600 nM	6 nM	Non-Toxic	0.003	14 µL/min/1e6 cells	45 mM (≈ 24.3 mg/mL)	99%	1000 nM	7 nM	90 nM	Non-Toxic	2200 nM	Non-Toxic	IC50 [16]: 480 nM; Activity (Salmonella typhimurium [17]): Non-Toxic; IC50 [18]: > 100000 nM; IC50 [19]: 4400 nM
